Data set [1] deals with Gluconeogenesis (liver glycogen and glucose). Briefly: Systemic effect: Gluconeogenesis in rats. Format: in vivo, Male Sprague-Dawley rats. The protocol:
2b. Testing for systemic effect: Gluconeogenesis in rats
Male Sprague-Dawley rats of approximately 140 g in weight were adrenalectomized. They were given an 0.9% solution of sodium chloride as their drinking water. 48 h later, the animals' feed was removed for 24 h. On the day of the experiment (3 days after adrenalectomy and 1 day of starvation), the experimental preparations were administered s.c. (2 ml/kg in sesame oil, with controls only receiving this vehicle). The animals were decapitated 6 h later, with 1 g of liver being removed in each case. The sample was taken up in 5 ml of 0.6M perchloric acid. Following homogenization and centrifugation, glucose was determined in the supernatant. The precipitate (glycogen) was hydrolyzed enzymically with amyloglucosidase, and glucose was also determined in the resulting hydrolysate (hexokinase test kit, from Boehringer Mannheim).

Data set [2] relates to allergic inflammation of the delayed type (oxazolone ear edema). Briefly: Local antiinflammatory effect in oxazolone ear edema in mice following epicutaneous application. To be noted: for inflammatory edematous swelling, difference between right and left auricle weights (x ± s) / Inhibition in %: 24 h; for inflammatory edematous swelling, difference between right and left auricle weights (x ± s): mice; for Inhibition in %: vs control. Format: in vivo, male NMRI mice. An excerpt: 1. Local antiinflammatory effect in oxazolone ear edema in mice following epicutaneous application.
The method described by Evans, D. P. et al., Br. J. Pharmacol 43, 403 (1971) was used. In mice, 4-ethoxy-methylene-2-phenyl-2-oxazoline (oxazolone) produces an allergic inflammation of the delayed type which can be inhibited by corticosteroids. The experimental animals employed are male NMRI mice of 25 g body weight which are divided into groups of 10 animals each. The animals were sensitized by applying 0.1 ml of a 2% solution of oxazolone in acetone to the shaven skin of the abdomen. On the 9th day following this sensitization, the allergic inflammation was triggered by applying 10 μl of a 2% solution of oxazolone/acetone to the inner side of the right ear auricle (control group). In the treated groups, the abovementioned solution contained the test preparations. 24 hours after applying the solutions, the animals were killed with CO2. A circular sample, measuring 8 mm, was punched out from each of the treated right ear auricle and the untreated left ear auricle. The samples were weighed immediately, with the difference between the right and left auricle weights representing the measure of the degree of inflammation. This inflammatory edematous swelling, in mg, was set to equal 100% in the control group, and the inflammation-inhibiting effect of the preparations is given as the percentage inhibition as compared with the control.

In another data set the test system is carrageenin paw edema. Briefly: Systemic activity following subcutaneous administration in the carrageenin paw edema test in rats. Type of data set: in vivo, Male Sprague-Dawley rats. To be noted: for Increase at 3 h (paw volume) / Increase at 6 h (paw volume): x ± s, * = p<0.05 Dunnett. How it is done: 2a. Testing for systemic activity following subcutaneous administration in the carrageenin paw edema test in rats The method was described by Winter, C. A. et al. in Proc. Soc. exp. Biol. (N.Y.), 111, 544, (1962). Male Sprague-Dawley rats of approximately 200 g body weight, and in group sizes of n=5, were given the substances subcutaneously (0.2 ml/100 g of body weight, dissolved in sesame oil). Controls were given sesame oil alone. 15 minutes later, 0.1 ml of a 0.5% solution of carrageenin was injected into the left hind paw. Prior to this, and at 3 h and 6 h afterwards, the paw volume was measured (ml) and the increase in swelling was ascertained by comparing with the preliminary value. The numbers are mean value and standard deviation (x±s). Statistical significance was assessed using the Dunnett test.
On the technique in general: Carrageenan injected into the paw causes an acute inflammation.

`C[C@@H]1C[C@H]2[C@@H]3CCC4=CC(=O)C=C[C@]4(C)[C@@]3(F)[C@@H](O)C[C@]2(C)[C@H]1C(=O)COC(=O)/C=C/c1ccccc1` [Cmpnd. I, Deoxymethasone 21-cinnamic ester]: in data set [1] (rat, in vivo), the “advantage (factor) over deoxymethasone regarding gluconeogenic effect” value is 3-10. Moreover, the “inflammatory edematous swelling, difference between right and left auricle weights (x ± s)” value in data set [2] (0.03 mg/ml epicutaneous) was found to be 7.7 ± 3.7 mg; in data set [2] (0.1 mg/ml epicutaneous) it was 3.9 ± 2.9 mg; in data set [2] (0.3 mg/ml epicutaneous), 2.3 ± 1.3 mg. For the same compound, the Inhibition in % in data set [2] (0.03 mg/ml epicutaneous) came to 43%; in data set [2] (0.1 mg/ml epicutaneous), 71%; in data set [2] (0.3 mg/ml epicutaneous) it was 83%. In addition, the “local antiinflammatory effect (in words)” value in data set [2] (mouse, in vivo) was “strong, local antiinflammatory effect”. For the same compound, the “effect on paw edema (in words)” value in the data set with carrageenin paw edema (0.1 mg/kg s.c.) was “does not”; in the data set with carrageenin paw edema (0.3 mg/kg s.c.), “practically without effect”. In addition, the “Increase at 3 h (paw volume)” value with carrageenin paw edema (0.1 mg/kg s.c.) came to 0.40 ± 0.06 mL; in the data set on carrageenin paw edema (0.3 mg/kg s.c.), 0.46 ± 0.12 mL. Also, the “Increase at 6 h (paw volume)” value in the data set on carrageenin paw edema (0.1 mg/kg s.c.) was found to be 0.39 ± 0.12 mL; with carrageenin paw edema (0.3 mg/kg s.c.), 0.32 ± 0.05 mL.

For `C[C@@H]1C[C@H]2[C@@H]3CCC4=CC(=O)C=C[C@]4(C)[C@@]3(F)[C@@H](O)C[C@]2(C)[C@H]1C(=O)CO` [Deoxymethasone, 9α-fluoro-16α-methyl-1(2)-dehydrocorticosterone], the “gluconeogenic effect (in words)” value in data set [1] (0.1 mg/kg, p<0.05, Dunnett's test) was “already exhibits this undesirable effect”. For the same compound, in data set [2] (0.03 mg/ml epicutaneous), the “inflammatory edematous swelling, difference between right and left auricle weights (x ± s)” value came to 8.6 ± 3.1 mg; the Inhibition in % stood at 36%. Also, in data set [2] (0.1 mg/ml epicutaneous), the “inflammatory edematous swelling, difference between right and left auricle weights (x ± s)” value is 3.9 ± 3.0 mg; the Inhibition in % was 71%. For the same compound, in data set [2] (0.3 mg/ml epicutaneous), the “inflammatory edematous swelling, difference between right and left auricle weights (x ± s)” value came out at 2.8 ± 2.3 mg; the Inhibition in % is recorded as 79%. For the same compound, in the data set with carrageenin paw edema (0.1 mg/kg s.c.), the “effect on paw edema (in words)” value is “significant effect”, the “Increase at 3 h (paw volume)” value was determined as 0.28 mL and the “Increase at 6 h (paw volume)” value stood at 0.23 ± 0.09 mL. Besides, in the data set on carrageenin paw edema (0.3 mg/kg s.c.), the “effect on paw edema (in words)” value was “almost completely inhibits the inflammation”, the “Increase at 3 h (paw volume)” value came out at 0.17 mL and the “Increase at 6 h (paw volume)” value was determined as 0.03 ± 0.03 mL.

The record behind these values is US5824670A, “17-deoxycorticosteroid-21-[O]carboxylic esters, processes for their preparation and pharmaceuticals containing these compounds” (priority 1994, dated 1998).
